Source: paper PMC12472597, “Pan-Amyloid Reactive Peptides p5+14 and p5R Exhibit Specific Charge-Dependent Binding to Glycosaminoglycans” (Pharmaceuticals, 2025)
Entries after “also recorded” stand apart in the source; their conditions may differ. One block for each molecule: values may come before it. No end group written: not given here.

Columns and labels:
[1] = clinical studies (NCT02603172); cited from earlier work
Procedure: The impact of accessory proteins in amyloid deposits remains unclear; however, some components have been evaluated extensively. Serum amyloid P component, for example, was thought to stabilize the amyloid pathology and render it resistant to proteolysis and immunological clearance. This hypothesis was tested using a small molecule drug (miridesap) that crosslinks SAP, thereby clearing it from amyloid deposits, potentially leading to their clearance. […] This was ...

[2] = cited from earlier work
Excerpt: Both peptides consist of a repeating heptad structure with periodic lysine (p5+14; -XXKXXXK-) or arginine (p5R; -XXRXXXR-) amino acids. […] These peptides also avidly bind other highly negatively charged linear molecules such as heparin and hypersulfated HSPG, the latter of which is associated with amyloid deposits in vivo [18, 20, 21, 22].

[3] = PET/CT imaging of patients with systemic amyloidosis; type: in vivo, human; settings: PET/CT at 5 h post injection
Procedure: Patients were imaged with p5+14 as part of the first-in-human, open label, Phase 1 study (NCT03678259). Synthesis of ^124I-labeled p5+14 has previously been reported. Briefly, lyophilized human grade peptide (Attralus, Inc., Naples, FL, USA) was radiolabeled on the day of use with iodine-124 (3D Imaging, Little Rock, AR, USA) using iodogen as the oxidant. Subjects were administered a 2 mCi dose of I-124 (<2 mg of peptide) intravenously. PET/CT images were acquired from crown to thighs at 5 h post injection, using a Siemens Biograph PET/CT (Siemens Healthineers, Malvern, PA, USA) with 5 min bed positions for the PET and a low dose CT (120 kVp, 50 effective mAs).
Data were reconstructed using a 3-dimensional ordered subset expectation maximization algorithm with attenuation and prompt gamma corrections, a 168 × 168 image matrix, and an image resolution of ~8 mm full width at half maximum. CT reconstruction utilized a medium smoothing kernel and 4 mm reconstruction increments. Patient PET/CT images were generated using Inveon Research Workplace software (Ed. 4.2 [4.2.0.15]; Siemens Preclinical Solutions).

[4] = GAG array apparent EC50, HS (GAG46); type: binding; settings: biotinylated peptide, highly sulfated HS, 4PL fit, n = 4
Excerpt: (§1) One exemplar GAG from the groups of heparin, HS, CS-AC, and CS-D was chosen to assess the Ec50 (concentration at the midpoint of binding). Bound peptide fluorescence was plotted against the concentration of peptide and a sigmoidal 4PL binding curve fit to the data (Figure 6). For GAGs with high peptide binding (heparin, HS, and highly sulfated CS-D), Ec50 calculations could be performed for both biotinylated p5+14 and p5R (Figure 6A,C,D). […] The differential binding potency, despite the shared selectivity, is likely due to the higher net charge on p5+14 (+12) compared with p5R (+8).
(§2) Glycosaminoglycan (GAG) microarray binding studies were performed by Z Biotech (Z Biotech, LLC, Aurora, CO, USA). Briefly, microarrays were laid out in a 16-subarray arrangement with 47 GAG or 24 heparan sulfate (HS) binding targets per subarray. […] The fluorescence emission was quantified by scanning at 532 nm and evaluated using Mapix microarray software (Innopsys, Carbonne, France). […]
(§3) Data visualization, statistical analysis, and correlations were performed using GraphPad Prism v 9.4.1 or later. […] Apparent affinities (Ec50) of peptides to array substrates were calculated using sigmoidal 4PL curve fitting to calculate the Ec50 in µg/mL, which was converted to molarity using the appropriate peptide molecular weight.

[5] = GAG array apparent EC50, heparin (GAG16); type: binding; settings: biotinylated peptide, 1 h RT, n = 4
Excerpt: as §1, §2, §3

[6] = GAG microarray binding (47 GAGs); settings: biotinylated peptide
Procedure: To assess the binding selectivity of biotinylated p5+14 and p5R peptides, we used a commercial glycosaminoglycan (GAG) binding microarray (ZBiotech, CO, USA), which contains 16 subarrays each consisting of 47 differing GAGs (varying lengths, charges, and composition (Supplementary Figure S1)) plus internal controls. Increasing concentrations of each peptide were evaluated on the subarrays. The GAG arrays consisted of exemplar hyaluronic acid (HA), heparin, chondroitin sulfate A/C (CS-AC), chondroitin sulfate D (CS-D), dermatan sulfate (DS), heparan sulfate (HS with low to intermediate sulfation levels), heparan sulfate (HS with high sulfation levels), and […] (KS). Background corrected binding of peptides p5+14 and p5R, at 2 µg/mL, to each GAG is shown in Figure 4A,B (additional concentrations are shown in Supplementary Figure S2). […] For heparin and highly sulfated HS, the binding intensity closely paralleled the total negative charge for each GAG (Figure 4C).
Glycosaminoglycan (GAG) microarray binding studies were performed by Z Biotech (Z Biotech, LLC, Aurora, CO, USA). Briefly, microarrays were laid out in a 16-subarray arrangement with 47 GAG or 24 heparan sulfate (HS) binding targets per subarray. Spotted arrays were blocked at room temperature (RT) for 30 min with Glycan Array Blocking Buffer (Z Biotech, LLC, Aurora, CO, USA) before being washed. Biotinylated peptides were diluted in blocking buffer + 1% bovine serum albumin to final concentrations of 50, 10, 2, 0.4, and 0.08 µg/mL and the solutions added to the arrays for 1 h at RT. […] The fluorescence emission was quantified by scanning at 532 nm and evaluated using Mapix microarray software (Innopsys, Carbonne, France). […]
as §3

[7] = GAG array apparent EC50, CS-AC (GAG22); type: binding; settings: biotinylated peptide, n = 4; for EC50: 1 h RT, 4PL fit
Excerpt: as §1
(§4) Glycosaminoglycan (GAG) microarray binding studies were performed by Z Biotech (Z Biotech, LLC, Aurora, CO, USA). Briefly, microarrays were laid out in a 16-subarray arrangement with 47 GAG or 24 heparan sulfate (HS) binding targets per subarray. Spotted arrays were blocked at room temperature (RT) for 30 min with Glycan Array Blocking Buffer (Z Biotech, LLC, Aurora, CO, USA) before being washed. Biotinylated peptides were diluted in blocking buffer + 1% bovine serum albumin to final concentrations of 50, 10, 2, 0.4, and 0.08 µg/mL and the solutions added to the arrays for 1 h at RT. The arrays were then washed again and streptavidin-Cy3 (0.2 µg/mL) added, followed by a 1-h incubation. The fluorescence emission was quantified by scanning at 532 nm and evaluated using Mapix microarray software (Innopsys, Carbonne, France). Background control data were subtracted from binding signals before the data were averaged.
(§5) Data visualization, statistical analysis, and correlations were performed using GraphPad Prism v 9.4.1 or later. Correlations of peptide binding to microarray substrates were performed using Pearson’s correlations. Apparent affinities (Ec50) of peptides to array substrates were calculated using sigmoidal 4PL curve fitting to calculate the Ec50 in µg/mL, which was converted to molarity using the appropriate peptide molecular weight.

[8] = HS array apparent Ec50, HS24; type: binding; settings: biotinylated peptide, 4PL fit, n = 6
Procedure: (§6) Biotinylated peptide binding to four of the HS glycans in the array were analyzed further to assess the estimated binding potency (Figure 9). […] The HS glycans used in this binding analysis contained fewer saccharide units and less total charge compared with that shown in Figure 6D, which may explain the difference in the estimated potency data.
as §2, with “subarray. Spotted arrays were blocked at room temperature (RT) for 30 min with Glycan Array Blocking Buffer (Z Biotech, LLC, Aurora, CO, USA) before being washed.” for “subarray.”
as §3

[9] = HS array apparent Ec50, HS13; type: binding; settings: biotinylated peptide; increasing peptide concentration; n = 6
Procedure: as §6
as §2, with “subarray. Spotted arrays were blocked at room temperature (RT) for 30 min with Glycan Array Blocking Buffer (Z Biotech, LLC, Aurora, CO, USA) before being washed.” for “subarray.”
as §3

[10] = GAG array apparent EC50, CS-D (GAG28); type: binding; settings: biotinylated peptide; for EC50: 1 h RT, 4PL fit, n = 4
Excerpt: as §1, §4, §5

[11] = HS array apparent Ec50, HS22; type: binding; settings: biotinylated peptide, 4PL fit, n = 6
Procedure: as §6
as §2, with “subarray. Spotted arrays were blocked at room temperature (RT) for 30 min with Glycan Array Blocking Buffer (Z Biotech, LLC, Aurora, CO, USA) before being washed.” for “subarray.”
as §3

[12] = Heparan sulfate microarray binding (24 HS); settings: biotinylated peptide; 0.4, 2, 10 µg/mL; n = 6
Procedure: This array comprised 24 structurally unique synthetic HS domains that varied in length, net charge, and charge density (Supplementary Figure S3). The binding of biotinylated peptides p5+14 (Figure 7A) and p5R (Figure 7B) to the HS array was performed as above, using increasing concentrations of peptide. The intensity of binding for both peptides, based on the fluorescence intensity, was closely related to the total charge (total sulfations) of the ligand (Figure 7, shown in red).
as §2, with “subarray. Spotted arrays were blocked at room temperature (RT) for 30 min with Glycan Array Blocking Buffer (Z Biotech, LLC, Aurora, CO, USA) before being washed.” for “subarray.”
as §3

[13] = HS array apparent Ec50, HS16; type: binding; settings: biotinylated peptide, 4PL fit, n = 6
Procedure: as §6
as §2, with “subarray. Spotted arrays were blocked at room temperature (RT) for 30 min with Glycan Array Blocking Buffer (Z Biotech, LLC, Aurora, CO, USA) before being washed.” for “subarray.”
as §3

[14] = Circular dichroism secondary structure; type: physicochemical
Procedure: Peptide secondary structures were analyzed by circular dichroism using an Olis RSM 1000 (On-line Instrument Systems, Inc., Bogart, GA, USA). Each study consisted of three replicates that were averaged and the dilution/background spectra subtracted. Non-biotinylated peptides were diluted to 0.05 mg/mL in phosphate buffered saline (PBS). For experiments involving the addition of enoxaparin (Amphastar Pharmaceuticals Inc., Rancho Cucamonga, CA., USA), enoxaparin was added to diluted peptide in PBS to reach a final concentration of 0–66.7 µg/mL. For experiments involving the addition of 2,2,2-trifluoroethanol (TFE) (Thermo Fisher Scientific, Waltham, MA, USA), TFE was added to diluted peptide in PBS to reach a final concentration of 0–40%.

[15] = cited from earlier work; remark: listed apart in the source
Excerpt: The concept of pan-amyloid reactive agents is not a new one. […] The binding sites are recurring with defined periodicity, which results in Congo red birefringence when stained amyloid is viewed under cross polarized illumination,a and a red shift in the emission maximum and increase in the quantum yield when thiofl ...

[16] = converted from µg/mL using peptide molecular weight, read-out: Apparent EC50 (Molarity)
[17] = array in blocking buffer + 1% BSA, 0.08-50 µg/mL, streptavidin-Cy3, 532 nm, read-out: Apparent EC50
[18] = HS array in blocking buffer + 1% BSA, 1 h RT, streptavidin-Cy3, 532 nm, read-out: Apparent Ec50
[19] = converted from µg/mL using peptide molecular weight, read-out: Apparent Ec50 (Molarity)
[20] = initial spectrum, non-biotinylated peptide 0.05 mg/mL in PBS, n = 3

Molecule: O=C(O)[C@H]1CCCN1C(=O)CCCCC(=O)N1CCC[C@@H]1C(=O)O [miridesap]
Removal of amyloid in patients [1]: failed to promote the meaningful removal of amyloid in patients

Molecule: bFGF: prototypical HS binding peptide [reference compound]
Binding in healthy tissues ([2]; healthy liver tissue and renal glomerulae): strong reactivity with healthy liver tissue and renal glomerulae

EC50 ([4]; array in blocking buffer + 1% BSA, 0.08-50 µg/mL, 1 h RT, streptavidin-Cy3, 532 nm, read-out: Apparent EC50): 0.932 µg/mL
EC50 [4, 16]: 196 nM
EC50 ([5]; array in blocking buffer + 1% BSA, 0.08-50 µg/mL, streptavidin-Cy3, 532 nm, sigmoidal 4PL fit, read-out: Apparent EC50): 1.2 µg/mL
EC50 ([5]; converted from µg/mL using peptide molecular weight, 4PL fit, read-out: Apparent EC50 (Molarity)): 251 nM
Binding to GAGs that were not heparin or HS ([6]; 2 µg/mL, n = 4): very little binding
EC50 [7, 17]: 3.38 µg/mL
EC50 [7, 16]: 708 nM
Binding to CS-AC ([7]; fluorescence au vs peptide concentration): saturable binding
EC50 [8, 18]: 0.448 µg/mL
EC50 [8, 19]: 94 nM
Binding to HS13 [9]: did not reach saturation
EC50 [10, 17]: 1.33 µg/mL
EC50 [10, 16]: 280 nM
EC50 [11, 18]: 0.473 µg/mL
EC50 [11, 19]: 99.3 nM
EC50 [13, 18]: 0.668 µg/mL
EC50 [13, 19]: 140 nM
Secondary structure in solution ([14]; PBS pH 7.2): partially unfolded states in solution
Secondary structure with low molecular weight heparin ([14]; in PBS with enoxaparin): adopt an α-helical structure
CD large minimum [14, 20]: 208 nm
CD smaller minimum [14, 20]: 222 nm
Ratio of the CD minima with enoxaparin ([14]; non-biotinylated peptide 0.05 mg/mL in PBS, higher concentrations of enoxaparin (0-66.7 µg/mL), n = 3): ≥ 1
Ratio of the CD minima with TFE ([14]; non-biotinylated peptide 0.05 mg/mL in PBS, increasing TFE (0-40%), n = 3): ≥ 1
Molecule: GGGYSKAQKAQAKQAKQAQKAQKAQAKQAKQAQKAQKAQAKQAKQ [p5+14, 45-residue polybasic lysine heptad-repeat peptide, net charge +12]
Organ uptake in patients ([3]; 2 mCi (<2 mg of peptide) i.v., patients with systemic amyloidosis): consistent with uptake in organs and tissues clinically known or suspected of amyloid deposition
Organ uptake in healthy subjects ([3]; 2 mCi i.v., healthy subjects): no pathologic uptake was observed
GAG binding selectivity ([6]; 2 µg/mL, background corrected fluorescence, n = 4): preferential binding to heparin and highly sulfated HS GAGs; also recorded: Little to no binding to HA, CS-AC, CS-D (with singular exception), DS, and KS
Affinity for heparin and HS immobilized in the arrays ([6]; compared with biotinylated p5R, GAG and HS arrays): higher affinity for both heparin and HS immobilized in the arrays
Reactivity with CS-D GAGs ([10]; GAG28 compared with GAG23-GAG27): abrupt intense reactivity of the peptides with GAG28, but none of the other CS GAGs (GAG23-GAG27)
HS binding pattern [12]: the binding to HS appeared to correlate precisely with the total charge of the HS

Molecule: Cc1ccc2c(c1)sc(-c1ccc(N(C)C)cc1)[n+]2C [thioflavin T]
Amyloid binding [15]: bind all types of amyloid but not in a specific way

Molecule: serum amyloid P-component: biological reagent that exhibits pan-amyloid reactivity
Amyloid binding [15]: exhibit pan-amyloid reactivity

Molecule: Nc1c(/N=N/c2ccc(-c3ccc(/N=N/c4cc(S(=O)(=O)O)c5ccccc5c4N)cc3)cc2)cc(S(=O)(=O)O)c2ccccc12 [Congo red]
Amyloid binding [15]: bind all types of amyloid but not in a specific way

Molecule: GGGYSRAQRAQARQARQAQRAQRAQARQARQ [p5R]
In vivo biodistribution vs basic fibroblast growth factor ([2]; ^125I-labeled): differed dramatically from that of the quintessential HSPG binding protein, basic fibroblast growth factor
